Experimental findings from patent US20260226057A1, “TRICYCLIC AZEPINONE DERIVATIVES AS SYSTEM XC INHIBITORS” (UCB BIOPHARMA SRL, priority 2023, published 2026) are described below.

Test [1] deals with T1, System Xc^− cystine/glutamate antiporter (Homo sapiens, UniProt Q9UPY5).
T1 sequence (Q9UPY5 1-501): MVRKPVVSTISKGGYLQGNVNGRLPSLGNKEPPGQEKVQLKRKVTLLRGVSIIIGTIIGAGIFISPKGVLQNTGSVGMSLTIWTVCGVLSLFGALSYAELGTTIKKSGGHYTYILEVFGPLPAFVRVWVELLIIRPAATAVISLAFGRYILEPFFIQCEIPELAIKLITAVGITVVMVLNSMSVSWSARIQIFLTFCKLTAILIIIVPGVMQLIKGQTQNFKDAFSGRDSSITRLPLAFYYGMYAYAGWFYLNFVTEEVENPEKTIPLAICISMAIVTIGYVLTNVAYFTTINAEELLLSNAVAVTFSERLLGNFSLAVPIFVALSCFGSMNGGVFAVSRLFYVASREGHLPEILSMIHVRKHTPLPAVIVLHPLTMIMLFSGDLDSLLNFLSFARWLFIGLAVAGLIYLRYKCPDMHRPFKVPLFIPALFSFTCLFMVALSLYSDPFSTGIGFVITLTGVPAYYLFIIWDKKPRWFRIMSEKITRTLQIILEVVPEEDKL
T1 sequence (P08195 1-529 partner): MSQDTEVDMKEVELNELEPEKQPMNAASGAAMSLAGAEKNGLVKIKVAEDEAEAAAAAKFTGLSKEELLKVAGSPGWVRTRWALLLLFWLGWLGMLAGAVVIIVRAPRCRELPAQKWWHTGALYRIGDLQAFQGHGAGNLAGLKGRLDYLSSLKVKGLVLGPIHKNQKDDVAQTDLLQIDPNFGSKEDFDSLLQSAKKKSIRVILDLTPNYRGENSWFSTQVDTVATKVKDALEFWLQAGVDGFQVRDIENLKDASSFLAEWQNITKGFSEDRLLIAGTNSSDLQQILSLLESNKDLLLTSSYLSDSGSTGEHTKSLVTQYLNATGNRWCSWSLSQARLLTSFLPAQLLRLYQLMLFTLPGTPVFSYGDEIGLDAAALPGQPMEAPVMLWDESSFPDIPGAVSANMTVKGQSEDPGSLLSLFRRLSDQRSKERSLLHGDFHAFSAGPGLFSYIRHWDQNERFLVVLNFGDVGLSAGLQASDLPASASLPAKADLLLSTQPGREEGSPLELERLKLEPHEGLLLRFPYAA
Put plainly: Cystine-induced glutamate release assay. The format is cell-based. Further details: endogenous in cells; host or cells: H4 cells. To be noted: H4 cells, 50 μM L-Cystine, 2 hours, sodium-free HEPES buffer; read-out: Cystine-induced glutamate release assay (range of pIC50) (converted). From the text: (§1) By measuring respectively, the concentration of glutamate released outside the cell and the L-cystine uptaken in the cell, with increasing concentrations of compounds of formula (I) according to the present invention, the efficacy of said compounds to inhibit the System Xc^− function can be evaluated.
(§2) The efficacy of the compounds to inhibit system Xc^− is represented by measuring the IC50 which corresponds to the concentration of compound necessary to inhibit 50% of the signals from the two control groups; DMSO 1% and Erastin 50 μM in the respective assays. pIC50 values correspond to −log of the IC50 in Molar.
Measurement of cystine-induced glutamate release indicates levels of glutamate (outside of the cell) that are dependent on system Xc^− antiporter function. Upon the addition of L-Cystine to H4 cells, intracellular glutamate is counter-transported and exported in the supernatant.
In this assay, the medium is devoid of sodium to prevent the transport of glutamate by sodium-dependent excitatory amino acid transporters (EAATs). H4 cells were plated on 384-well culture plate at 1×10^4 cells/well in Dulbecco's Modified Eagle Medium (DMEM) with L-glutamine, penicillin/streptomycin and 10% fetal bovine serum (all from ThermoFisher Scientific) and incubated in a humidified CO2 incubator at 37° C. After 2 days, cells were washed 4 times with prewarmed sodium-free HEPES buffer (contents in mM: HEPES 10, KCl 5.4, CaCl2 2.5, MgCl2 1, KH2PO4 0.4, D-Glucose 5, Choline chloride 140), pH 7.4. Glutamate release was induced by addition of 50 μM of L-Cystine (Sigma-Aldrich), together with a test compound of Formula (I) at 1% final DMSO concentration. After 2 hours of incubation in the culture incubator, supernatants were transferred to a low-binding polypropylene 384-well plate to determine L-glutamate concentration using Amplex™ Red Glutamic Acid Assay Kit (ThermoFisher Scientific). Briefly, 10 μL of Amplex™ Red working solution was added to 10 μL of the supernatant, then the mixture was incubated for 30 min at 37° C. Fluorescence intensity was measured by EnVision microplate reader (PerkinElmer).

Test [2] deals with T1, System Xc^− cystine/glutamate antiporter. Put plainly: [^14C]L-Cystine uptake assay. It counts as cell-based. Particulars: H4 cells, 15 min preincubation, 1 hour at 37° C., sodium-free HEPES buffer; read-out: [^14C] L-Cystine uptake assay (range of pIC50) (converted).
From the text: as §1, §2
In this assay, the medium is devoid of sodium to prevent the transport of glutamate by sodium-dependent excitatory amino acid transporters (EAATs). H4 cells were plated on a 96-well CytoStar-T scintillating microplate (PerkinElmer) at 5×10^4 cells/well in the medium described above. After 1 day, cells were washed one time with the sodium-free HEPES buffer and preincubated with test compounds of Formula (I) (1% final DMSO) for 15 min. Uptake was initiated by adding 0.5 μM L-[1,2, 1′,2′-^14C] Cystine (0.02 mCi/mL, PerkinElmer, Waltham, US) and 4.5 μM L-Cystine (Sigma-Aldrich). After 1 hour at 37° C., plates were counted in a MicroBeta^2 microplate counter (PerkinElmer).

Each structure is given as a SMILES string.

With `CC(=O)c1ccc(NC(=O)CN2C(=O)C(C)c3ncc(F)cc3-c3c2cc(CO)nc3F)cc1` (stereo not drawn) [#30], the IC50 in test [1] and in test [2] was 100 to 501 nM each time.

For `CC(=O)c1ccc(NC(=O)CN2C(=O)C(C)c3cnc(F)cc3-c3c2cc(C)nc3F)cc1` (stereo not drawn) [#34], the IC50 in test [1] and in test [2] was 39.8 to 100 nM in each case.

With `Cc1cc2c(c(F)n1)-c1cccnc1[C@@H](C)C(=O)N2CC(=O)Nc1ccc(C(=O)C2CC2)cc1` [#2], the IC50 in test [1] and in test [2] was 100 to 501 nM in each case.

In the case of `COc1cnc2c(c1)-c1c(cc(C)nc1F)N(CC(=O)Nc1ccc(C(C)=O)cc1)C(=O)C2C` (single isomer, unassigned) [#20], the IC50 is 39.8 to 100 nM in test [1] and 15.8 to 39.8 nM in test [2].

Consider `CC(=O)c1ccc(NC(=O)CN2C(=O)C(C)c3ncc(F)cc3-c3cc(C#N)c(C)cc32)cc1` (single isomer, unassigned) [#19], for which the IC50 is 15.8 to 39.8 nM in test [1] and less than 15.8 nM in test [2].

Regarding `CC(=O)c1ccc(NC(=O)CN2C(=O)C(C)c3ncccc3-c3c2cc(N2CC(C)(F)C2)nc3F)cc1` (stereo not drawn) [#26], the IC50 in test [1] was 100 to 501 nM; in test [2], 15.8 to 39.8 nM.

On to `COc1cc2c(c(F)n1)-c1cccnc1C(C)C(=O)N2CC(=O)Nc1ccc(C(C)=O)cc1` (single isomer, unassigned) [#11], for which the IC50 in test [1] and in test [2] was 15.8 to 39.8 nM throughout.

Consider `COc1nccc2c1-c1cccnc1C(C)C(=O)N2CC(=O)Nc1ccc(C(C)=O)cc1` (single isomer, unassigned) [#14], for which the IC50 is 39.8 to 100 nM in test [1] and 15.8 to 39.8 nM in test [2].

`CC(=O)c1ccc(NC(=O)CN2C(=O)Cc3ncccc3-c3c2cc(N2CC(F)C2)nc3F)cc1` [#21]: the values for the IC50 in test [1] and in test [2] were 15.8 to 39.8 nM and less than 15.8 nM, respectively.

With `CC(=O)c1ccc(NC(=O)CN2C(=O)C(C)c3ncccc3-c3c2cc(C)nc3F)cc1F` (stereo not drawn) [#24], the IC50 was 39.8 to 100 nM in test [1] and 15.8 to 39.8 nM in test [2].

Consider `CC(=O)c1ccc(NC(=O)CN2C(=O)C(C)c3ncccc3-c3c2cc(C)nc3F)cc1O` (single isomer, unassigned) [#16], for which the IC50 in test [1] was 15.8 to 39.8 nM; in test [2], less than 15.8 nM.

`CC(=O)c1ccc(NC(=O)CN2C(=O)Cc3ncccc3-c3c2cc(N2CC(F)(F)C2)nc3F)cc1` [#22]: the values for the IC50 in test [1] and in test [2] were 39.8 to 100 nM and 15.8 to 39.8 nM, respectively.

For `COc1cc2c(c(F)n1)-c1cc(F)cnc1C(C)C(=O)N2CC(=O)Nc1ccc(C(C)=O)cc1` (single isomer, unassigned) [#17], the IC50 was 39.8 to 100 nM in test [1] and less than 15.8 nM in test [2].

Consider `CC(=O)c1ccc(NC(=O)CN2C(=O)C(C)c3ncccc3-c3c2cc(C2(O)CCC2)nc3F)cc1` (stereo not drawn) [#29], for which the IC50 in test [1] and in test [2] was 39.8 to 100 nM each time.

Regarding `CC(=O)c1ccc(NC(=O)CN2C(=O)[C@H](C)c3ncc(F)cc3-c3c2cc(C)nc3Cl)cc1` [#5], the IC50 in test [1] and in test [2] was less than 15.8 nM each time.

Take `CC(=O)c1ccc(NC(=O)CN2C(=O)C(C)c3ncccc3-c3c2cc(C)nc3Cl)cc1` (single isomer, unassigned) [#6]: the IC50 in test [1] and in test [2] was less than 15.8 nM throughout.

For the compound `CC(=O)c1ccc(NC(=O)CN2C(=O)C(C)c3ncc(F)cc3-c3cnc(C)cc32)cc1` (stereo not drawn) [#4], the IC50 in test [1] and in test [2] was 39.8 to 100 nM in each case.

On to `COc1nc(C)cc2c1-c1cccnc1C(C)C(=O)N2CC(=O)Nc1ccc(C(C)=O)cc1` (single isomer, unassigned) [#13], for which the IC50 in test [1] was 15.8 to 39.8 nM; in test [2] it was less than 15.8 nM.

As for `CC(=O)c1ccc(NC(=O)CN2C(=O)C(C)c3ncccc3-c3c2cc(F)nc3F)cc1` (single isomer, unassigned) [#23], the IC50 in test [1] and in test [2] was 39.8 to 100 nM in each case.

Take `CC(=O)c1ccc(NC(=O)CN2C(=O)Cc3ccccc3-c3c2cc(C)nc3F)cc1` [#10]: the IC50 was 100 to 501 nM in test [1] and 39.8 to 100 nM in test [2].

`CC(=O)c1ccc(NC(=O)CN2C(=O)C(C)c3ncc(F)cc3-c3c2cc(C)nc3F)cc1O` (single isomer, unassigned) [#33]: the IC50 in test [1] and in test [2] was less than 15.8 nM throughout.

On to `CC(=O)c1ccc(NC(=O)CN2C(=O)C(C)c3nscc3-c3c2cc(C)nc3F)cc1` (stereo not drawn) [#28], for which the IC50 in test [1] was 39.8 to 100 nM; in test [2], 100 to 501 nM.

Take `CC(=O)c1ccc(NC(=O)CN2C(=O)C(C)c3ncccc3-c3c2cc(N2CC(C)(O)C2)nc3F)cc1` (stereo not drawn) [#25]: the values for the IC50 in test [1] and in test [2] were 39.8 to 100 nM and 15.8 to 39.8 nM, respectively.

Consider `CC(=O)c1ccc(NC(=O)CN2C(=O)Cc3ncccc3-c3c2cc(N2CC4(C2)CC4(F)F)nc3Cl)cc1` [#9], for which the values for the IC50 in test [1] and in test [2] were 100 to 501 nM and 39.8 to 100 nM, respectively.

As for `Cc1cc2c(c(F)n1)-c1cc(F)cnc1C(C)C(=O)N2CC(=O)Nc1ccc2c(c1)OCC2=O` (single isomer, unassigned) [#18], the IC50 in test [1] and in test [2] was 39.8 to 100 nM each time.

`CC(=O)c1ccc(NC(=O)CN2C(=O)[C@H](C)c3ncc(F)cc3-c3c2cc(C)nc3F)cc1` [#3]: the IC50 in test [1] and in test [2] was 15.8 to 39.8 nM each time.

With `COc1cnc2c(c1)-c1cnc(C)cc1N(CC(=O)Nc1ccc(C(C)=O)cc1)C(=O)C2C` (single isomer, unassigned) [#12], the IC50 in test [1] and in test [2] was 39.8 to 100 nM each time.

Regarding `CC(=O)c1ccc(NC(=O)CN2C(=O)C(C)c3ncccc3-c3c(F)cc(N4CC(F)C4)cc32)cc1` (stereo not drawn) [#35], the figures for the IC50 in test [1] and in test [2] were 15.8 to 39.8 nM and less than 15.8 nM, respectively.

In the case of `COc1cc2c(cn1)-c1cc(F)cnc1C(C)C(=O)N2CC(=O)Nc1ccc(C(C)=O)cc1` (single isomer, unassigned) [#32], the values for the IC50 in test [1] and in test [2] were 100 to 501 nM and 15.8 to 39.8 nM, respectively.

For `CC(=O)c1ccc(NC(=O)CN2C(=O)C(C)c3ncccc3-c3c2cc(C2CCC2)nc3F)cc1` (stereo not drawn) [#31], the IC50 in test [1] and in test [2] was 15.8 to 39.8 nM throughout.

As for `CC(=O)c1ccc(NC(=O)CN2C(=O)C(C)c3ncccc3-c3c2cc(N2CC(F)C2)nc3F)cc1` (stereo not drawn) [#8], the IC50 in test [1] and in test [2] was less than 15.8 nM throughout.

For `CC(=O)c1ccc(NC(=O)CN2C(=O)[C@H](C)c3ncccc3-c3c2cc(C)nc3F)cc1` [#1], the IC50 in test [1] and in test [2] was 15.8 to 39.8 nM in each case.

`CC(=O)c1ccc(NC(=O)CN2C(=O)Cc3ncccc3-c3c2cc(N2CC(C)(O)C2)nc3F)cc1` [#27]: the IC50 was 39.8 to 100 nM in test [1] and 15.8 to 39.8 nM in test [2].
